This is an account of results in patent US20100239563A1 (priority 2001, published 2010).

The conditions of data set [1]: human, in vivo; cited from earlier work.
Data set [2] has as its system influenza B viruses/Massachusetts/6/92 (B/Mass).
Data set [3] relates to influenza B virus strain Massachusetts/6/93.
The subject of data set [4] is influenza A virus strain WSN-HK.

Take `CN1CC[C@H](c2c(O)cc(O)c3c(=O)cc(-c4ccccc4Cl)oc23)[C@H](O)C1` [flavopiridol]: the MTD in data set [1] was 50 mg/m^2/dx3.

For the compound `N#CC(=C(N)Sc1ccccc1N)C(C#N)=C(N)Sc1ccccc1N` [U0126, 1,4-diamino-2,3-dicyano-1,4-bis(2-aminophenylthio)butadiene], the “titer of infectious virus particles over infection sequences” value in data set [2] is “significant reduction of the influenza virus particles”. Moreover, the “reduction of the number of newly formed infectious virus particles” value in data set [3] was “approx. 90%”; in data set [4], “approx. 80%”. In addition, the “cytotoxic effect on the cells” value with MDCK cells is given as “neither solvent nor inhibitor have a significant cytotoxic effect”.
